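Growth conditions: 96-well plates. Treatment: test compound, 48 hours, 5 concentrations. Analysis: linear interpolation between bracketing concentrations; unreached endpoints set to highest concentration. GI50 is the concentration that inhibits growth by half. Definition used: TGI = concentration required for complete inhibition of growth.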
How the values were obtained:
Test in all cases: inhibition of tumour cell growth, NCI panel, 48 h
NCI-H522 lung = system: NCI-H522 lung
IGROV1 ovarian = system: IGROV1 ovarian
CCRF-CEM leukemia = system: CCRF-CEM leukemia
SN12C renal = system: SN12C renal
OVCAR-5 ovarian = system: OVCAR-5 ovarian
MALME-3M melanoma = system: MALME-3M melanoma
K-562 leukemia = system: K-562 leukemia
SF-295 CNS = system: SF-295 CNS
SW-620 colon = system: SW-620 colon
SK-MEL-2 melanoma = system: SK-MEL-2 melanoma
HCC-2998 colon = system: HCC-2998 colon
BT-549 breast = system: BT-549 breast
SK-OV-3 ovarian = system: SK-OV-3 ovarian
PC-3 prostate = system: PC-3 prostate
COLO 205 colon = system: COLO 205 colon
LOX IMVI melanoma = system: LOX IMVI melanoma
UO-31 renal = system: UO-31 renal
A498 renal = system: A498 renal
EKVX NSCLC = system: EKVX NSCLC
NCI-H23 lung = system: NCI-H23 lung
SNB-75 CNS = system: SNB-75 CNS
MDA-MB-231 breast = system: MDA-MB-231 breast
A549 NSCLC = system: A549 NSCLC
SK-MEL-5 melanoma = system: SK-MEL-5 melanoma
HS 578T breast = system: HS 578T breast
OVCAR-4 ovarian = system: OVCAR-4 ovarian
TK-10 renal = system: TK-10 renal
NCI/ADR-RES ovarian = system: NCI/ADR-RES ovarian
SF-268 CNS = system: SF-268 CNS
T-47D breast = system: T-47D breast
MCF7 breast = system: MCF7 breast
HOP-92 NSCLC = system: HOP-92 NSCLC
M14 melanoma = system: M14 melanoma
786-0 renal = system: 786-0 renal
OVCAR-8 ovarian = system: OVCAR-8 ovarian
KM12 colon = system: KM12 colon
HCT-116 colon = system: HCT-116 colon
MOLT-4 leukemia = system: MOLT-4 leukemia
NCI-H226 lung = system: NCI-H226 lung
HOP-62 NSCLC = system: HOP-62 NSCLC
RXF 393 renal = system: RXF 393 renal
HCT-15 colon = system: HCT-15 colon
U251 CNS = system: U251 CNS
SK-MEL-28 melanoma = system: SK-MEL-28 melanoma
CAKI-1 renal = system: CAKI-1 renal
ACHN renal = system: ACHN renal
UACC-257 melanoma = system: UACC-257 melanoma
UACC-62 melanoma = system: UACC-62 melanoma
OVCAR-3 ovarian = system: OVCAR-3 ovarian
SR leukemia = system: SR leukemia
NCI-H460 lung = system: NCI-H460 lung
HL-60(TB) leukemia = system: HL-60(TB) leukemia
SNB-19 CNS = system: SNB-19 CNS
DU-145 prostate = system: DU-145 prostate
RPMI-8226 leukemia = system: RPMI-8226 leukemia
MDA-MB-435 = system: MDA-MB-435
SF-539 CNS = system: SF-539 CNS
HT29 colon = system: HT29 colon

CCOC(=O)C#Cc1c(C(=O)OCC)nnn1Cc1ccc(C(F)(F)F)cc1
GI50 (NCI-H522 lung): 2.4 µM
TGI (NCI-H522 lung): 4.47 µM
GI50 (IGROV1 ovarian): 14.2 µM
TGI (IGROV1 ovarian): 30.8 µM
GI50 (CCRF-CEM leukemia): 1.07 µM
TGI (CCRF-CEM leukemia): 4.92 µM
GI50 (SN12C renal): 2.42 µM
TGI (SN12C renal): 6.08 µM
GI50 (OVCAR-5 ovarian): 9.75 µM
TGI (OVCAR-5 ovarian): 22 µM
GI50 (MALME-3M melanoma): 2.08 µM
TGI (MALME-3M melanoma): 4.9 µM
GI50 (K-562 leukemia): 1.77 µM
TGI (K-562 leukemia): 8.3 µM
GI50 (SF-295 CNS): 17.5 µM
TGI (SF-295 CNS): 32.9 µM
GI50 (SW-620 colon): 2.08 µM
TGI (SW-620 colon): 4.36 µM
GI50 (SK-MEL-2 melanoma): 15.1 µM
TGI (SK-MEL-2 melanoma): 28.7 µM
GI50 (HCC-2998 colon): 18.1 µM
TGI (HCC-2998 colon): 32.7 µM
GI50 (BT-549 breast): 2.93 µM
TGI (BT-549 breast): 8.65 µM
GI50 (SK-OV-3 ovarian): 19.4 µM
TGI (SK-OV-3 ovarian): 38.6 µM
GI50 (PC-3 prostate): 9.38 µM
TGI (PC-3 prostate): 22 µM
GI50 (COLO 205 colon): 2.32 µM
TGI (COLO 205 colon): 5.29 µM
GI50 (LOX IMVI melanoma): 0.692 µM
TGI (LOX IMVI melanoma): 2.09 µM
GI50 (UO-31 renal): 1.8 µM
TGI (UO-31 renal): 3.47 µM
GI50 (A498 renal): 16.9 µM
TGI (A498 renal): 30.6 µM
GI50 (EKVX NSCLC): 16.6 µM
TGI (EKVX NSCLC): 31.2 µM
GI50 (NCI-H23 lung): 11.5 µM
TGI (NCI-H23 lung): 27.6 µM
GI50 (SNB-75 CNS): 9.31 µM
TGI (SNB-75 CNS): 21.4 µM
GI50 (MDA-MB-231 breast): 4.05 µM
TGI (MDA-MB-231 breast): 14 µM
GI50 (A549 NSCLC): 20.6 µM
TGI (A549 NSCLC): 39.2 µM
GI50 (SK-MEL-5 melanoma): 9.92 µM
TGI (SK-MEL-5 melanoma): 21.5 µM
GI50 (HS 578T breast): 22.5 µM
TGI (HS 578T breast): 59.5 µM
GI50 (OVCAR-4 ovarian): 3.22 µM
TGI (OVCAR-4 ovarian): 11.7 µM
GI50 (TK-10 renal): 2.08 µM
TGI (TK-10 renal): 4.55 µM
GI50 (NCI/ADR-RES ovarian): 7.49 µM
TGI (NCI/ADR-RES ovarian): 40.7 µM
GI50 (SF-268 CNS): 8.12 µM
TGI (SF-268 CNS): 25.7 µM
GI50 (T-47D breast): 2.08 µM
TGI (T-47D breast): 5.66 µM
GI50 (MCF7 breast): 2.52 µM
TGI (MCF7 breast): 10.1 µM
GI50 (HOP-92 NSCLC): 2.53 µM
TGI (HOP-92 NSCLC): 5.7 µM
GI50 (M14 melanoma): 2.46 µM
TGI (M14 melanoma): 5.82 µM
GI50 (786-0 renal): 2.58 µM
TGI (786-0 renal): 6.29 µM
GI50 (OVCAR-8 ovarian): 4.37 µM
TGI (OVCAR-8 ovarian): 15 µM
GI50 (KM12 colon): 11.8 µM
TGI (KM12 colon): 25.5 µM
GI50 (HCT-116 colon): 1.8 µM
TGI (HCT-116 colon): 3.5 µM
GI50 (MOLT-4 leukemia): 1.73 µM
TGI (MOLT-4 leukemia): 6.85 µM
GI50 (NCI-H226 lung): 1.72 µM
TGI (NCI-H226 lung): 3.63 µM
GI50 (HOP-62 NSCLC): 17 µM
TGI (HOP-62 NSCLC): 32 µM
GI50 (RXF 393 renal): 1.68 µM
TGI (RXF 393 renal): 3.24 µM
GI50 (HCT-15 colon): 1.95 µM
TGI (HCT-15 colon): 4.46 µM
GI50 (U251 CNS): 10.9 µM
TGI (U251 CNS): 22.8 µM
GI50 (SK-MEL-28 melanoma): 2.47 µM
TGI (SK-MEL-28 melanoma): 5.91 µM
GI50 (CAKI-1 renal): 2.09 µM
TGI (CAKI-1 renal): 4.58 µM
GI50 (ACHN renal): 1.92 µM
TGI (ACHN renal): 3.56 µM
GI50 (UACC-257 melanoma): 3.69 µM
TGI (UACC-257 melanoma): 11 µM
GI50 (UACC-62 melanoma): 1.93 µM
TGI (UACC-62 melanoma): 4.36 µM
GI50 (OVCAR-3 ovarian): 1.73 µM
TGI (OVCAR-3 ovarian): 3.32 µM
GI50 (SR leukemia): 1.06 µM
TGI (SR leukemia): 4.48 µM
GI50 (NCI-H460 lung): 11.5 µM
TGI (NCI-H460 lung): 27.1 µM
GI50 (HL-60(TB) leukemia): 1.3 µM
TGI (HL-60(TB) leukemia): 3.85 µM
GI50 (SNB-19 CNS): 19.4 µM
TGI (SNB-19 CNS): 44.8 µM
GI50 (DU-145 prostate): 3.9 µM
TGI (DU-145 prostate): 15.1 µM
GI50 (RPMI-8226 leukemia): 2.53 µM
TGI (RPMI-8226 leukemia): 7.21 µM
GI50 (MDA-MB-435): 3.72 µM
TGI (MDA-MB-435): 14.5 µM

COC(=O)CCC(C)[C@H]1CCC2C3C(C[C@H](OC(C)=O)[C@@]21C)[C@@]1(C)CCC2(C[C@H]1C[C@H]3OC(C)=O)OOC1(CCC(C(C)(C)C)CC1)OO2 (some centres undefined)
TGI (NCI-H522 lung): > 100 µM
TGI (IGROV1 ovarian): 48.8 µM
TGI (CCRF-CEM leukemia): > 100 µM
TGI (SN12C renal): > 100 µM
TGI (OVCAR-5 ovarian): > 100 µM
TGI (MALME-3M melanoma): > 100 µM
TGI (K-562 leukemia): > 100 µM
TGI (SF-295 CNS): > 100 µM
TGI (SW-620 colon): > 100 µM
TGI (SK-MEL-2 melanoma): > 100 µM
TGI (HCC-2998 colon): > 100 µM
TGI (BT-549 breast): > 100 µM
TGI (SK-OV-3 ovarian): > 100 µM
TGI (PC-3 prostate): > 100 µM
TGI (COLO 205 colon): > 100 µM
TGI (LOX IMVI melanoma): > 100 µM
TGI (UO-31 renal): 29 µM
TGI (A498 renal): > 100 µM
TGI (EKVX NSCLC): 30 µM
TGI (NCI-H23 lung): > 100 µM
TGI (SNB-75 CNS): > 100 µM
TGI (MDA-MB-231 breast): > 100 µM
TGI (A549 NSCLC): > 100 µM
TGI (SK-MEL-5 melanoma): > 100 µM
TGI (HS 578T breast): > 100 µM
TGI (OVCAR-4 ovarian): > 100 µM
TGI (TK-10 renal): > 100 µM
TGI (NCI/ADR-RES ovarian): > 100 µM
TGI (SF-539 CNS): > 100 µM
TGI (SF-268 CNS): > 100 µM
TGI (T-47D breast): > 100 µM
TGI (MCF7 breast): > 100 µM
TGI (HOP-92 NSCLC): > 100 µM
TGI (M14 melanoma): > 100 µM
TGI (786-0 renal): > 100 µM
TGI (OVCAR-8 ovarian): > 100 µM
TGI (KM12 colon): > 100 µM
TGI (HCT-116 colon): > 100 µM
TGI (MOLT-4 leukemia): > 100 µM
TGI (HT29 colon): > 100 µM
TGI (NCI-H226 lung): > 100 µM
TGI (HOP-62 NSCLC): 29 µM
TGI (RXF 393 renal): > 100 µM
TGI (HCT-15 colon): > 100 µM
TGI (U251 CNS): > 100 µM
TGI (SK-MEL-28 melanoma): > 100 µM
TGI (CAKI-1 renal): > 100 µM
TGI (ACHN renal): > 100 µM
TGI (UACC-257 melanoma): > 100 µM
TGI (OVCAR-3 ovarian): > 100 µM
TGI (SR leukemia): > 100 µM
TGI (NCI-H460 lung): > 100 µM
TGI (HL-60(TB) leukemia): > 100 µM
TGI (SNB-19 CNS): > 100 µM
TGI (DU-145 prostate): > 100 µM
TGI (RPMI-8226 leukemia): 45.2 µM
TGI (MDA-MB-435): > 100 µM

Reference: PubChem BioAssay (NCI)
